Where “and” joins values, the source holds several entries; their conditions need not be identical. Equal values may be shown once. Entries after “also recorded” stand apart in the source; their conditions may differ. Marks after values point to notes of the source that are not given here.
Legend:
[1] = tested on: patients with advanced CHF and reduced EF; assay: Trial safety and clinical outcomes (hypotension, arrhythmia, ischemia, symptoms, events); type: in vivo, human
Experimental: Safety outcomes included reduction in systolic blood pressure, hypotension, and symptomatic hypotension, prolongation of the QTc, ischemia, and arrhythmia during or after infusion, and clinical outcomes.
The following symptoms were assessed as yes or no prior to infusion and after 30, 60, 120 min and 30 min after infusion and at the 2-5 days follow-up; headache, dizziness, dyspnea, central chest pain, flush, sleepiness, upset stomach and other symptoms. The following signs were recorded prior to start of infusion and after lunch; rales, peripheral oedema, jugular venous distension, hepatomegaly and S3 gallop.
Hypotension was assessed in two ways: The difference in change in blood pressure between the groups was quantified, and hypotension in any one patient was defined as a drop of systolic blood pressure of >20 mm Hg or to <80 mm Hg.
The difference in change in heart rate between the groups was quantified. Bradycardia was defined as a reduction in heart rate of >15 beats per minute, to a heart rate <40 beats per minute, an increase in PQ time by >20 ms, or AV block II-III. In individual patients, tachycardia was defined as an increase in heart rate by >10 beats per minute or heart rate >110 beats per minute. Ventricular extraystoles were quantified and ventricular tachycardia was defined as non-sustained if ≥3 beats in a row up to ≤30 seconds, and sustained if >30 seconds. Supra-ventricular arrhythmia was defined as ectopic atrial tachycardia, atrial flutter or atrial fibrillation, or AV-nodal tachycardia of >3 seconds duration. Ghrelin may […] hERG channels and as such cause a prolongation of the QTc interval on the EKG, which theoretically could predispose to arrhythmia. Therefor we monitored QTc.
Ischemia was assessed in two ways: The difference in change in troponin T between the groups was quantified, and ischemia in any one patient was defined as symptoms of ECG changes consistent with ischemia, or a rise in troponin T of >50%.
Patients were followed in the medical record until 30 Apr. 2017. Outcomes were freedom from all-cause death; all cause death or HF hospitalization; all cause death or heart transplantation or left ventricular assist device, and a combination of all these.

[2] = tested on: intracellular cAMP concentration; assay: cAMP measurement in cardiomyocytes (direct immunoassay kit); type: cell-based, mouse; conditions: vs placebo
Experimental: The intracellular cAMP concentration was measured using the cAMP direct Immunoassay kit (Abcam ab65355). Briefly, frozen cardiomyocytes pellets from groups described above (Placebo, Ghrelin, D-Lys 3 GHS-R1a+Ghrelin) were homogenized on ice using volume of 0.1 M HCl to obtain a protein concentration of 1 mg/ml. Acetylated supernatants of samples were used for the incubation with antibodies in ELISA plates according to the kit manufacturer. Finally, the optic density absorbance at 450 nm was analyzed using a microplate reader (Biotek, Synergy 2). The concentration of cAMP was normalized, dividing the resulting readout (pmol/ml) by the total protein concentration (mg/ml) for each sample. The experiments were conducted by an operator blinded regarding the treatment of the animals.

[3] = tested on: dogs with acute myocardial infarction; conditions: US2004014671A1; cited from earlier work
[4] = tested on: patients with advanced CHF and reduced EF; assay: Trial serum and plasma biomarkers; type: in vivo, human
Experimental: Blood samples were collected in 1) morning fasting state baseline, 2) after standardized breakfast prior to intervention, 3) after 30 min infusion, 4) after 60 min infusion and 5) after 120 min infusion, 6) 30 min after completed infusion and 7) at follow-up 2-5 days later (FIG. 2). Blood was collected in ethylenediaminetetraacetic acid (EDTA) and serum tubes and immediately centrifuged and plasma and serum was aliquoted and stored in −70° C. until analysis.
Creatinine clearance was calculated according to the Cockcroft-Gault equation; ([140-age] * weight in kg*1.23)/creatinine*0.85 (if […]). Renal function was measured by creatinine and cystatin-C at Karolinska University Hospital core laboratory. NT-proBNP was analyzed by proBNPII (Roche Diagnostics, Bromma, Sweden). Plasma glucose measurements were from EDTA-containing whole venous blood tubes and analyzed with a photometric point-of-care technique, the HemoCue® Glucose 201 RT (Ängelholm, Sweden). Troponin T was analyzed in the Karolinska University Hospital core laboratory.

[5] = Baseline, bracketed range in line below

CCCCCCCC(=O)OC[C@H](NC(=O)[C@H](CO)NC(=O)CN)C(=O)N[C@@H](Cc1ccccc1)C(=O)N[C@@H](CC(C)C)C(=O)N[C@@H](CO)C(=O)N1CCC[C@H]1C(=O)N[C@@H](CCC(=O)O)C(=O)N[C@@H](Cc1cnc[nH]1)C(=O)N[C@@H](CCC(N)=O)C(=O)N[C@@H](CCCNC(=N)N)C(=O)N[C@H](C(=O)N[C@@H](CCC(N)=O)C(=O)N[C@@H](CCC(N)=O)C(=O)N[C@@H](CCCNC(=N)N)C(=O)N[C@@H](CCCCN)C(=O)N[C@@H](CCC(=O)O)C(=O)N[C@@H](CO)C(=O)N[C@@H](CCCCN)C(=O)N[C@@H](CCCCN)C(=O)N1CCC[C@H]1C(=O)N1CCC[C@H]1C(=O)N[C@@H](C)C(=O)N[C@@H](CCCCN)C(=O)N[C@@H](CC(C)C)C(=O)N[C@@H](CCC(N)=O)C(=O)N1CCC[C@H]1C(=O)N[C@@H](CCCNC(=N)N)C(=O)O)C(C)C [Ghrelin]
troponin T in the one patient with >50% increase ([1]; Baseline): 31 ng/L | patients with flush ([1]; at 60 min, vs. 0 placebo, p=0.006): 7 | troponin T in the one patient with >50% increase ([1]; at FU): 164 ng/L | incidence of hypotension ([1]; drop of systolic BP >20 mm Hg or to <80 mm Hg): no incidence of hypotension; also recorded: no events of hypotension or symptomatic hypotension | troponin T in the one patient with >50% increase ([1]; during infusion (successive samples)): 38 ng/L and 42 ng/L and 43 ng/L and 34 ng/L | patients with a >50% increase in troponin T ([1]; ghrelin group (n = 15)): One | effect on heart rate ([1]; human, in vivo): no effect | incidence of ventricular tachy or brady arrhythmias ([1]; human, in vivo): no effect | symptoms or EKG changes consistent with ischemia ([1]; human, in vivo): no symptoms or EKG changes consistent with ischemia | clinical events vs placebo ([1]; over 90 days follow-up): no differences in clinical events | cAMP concentration in cardiomyocytes [2]: reduces | cAMP concentration in cardiomyocytes ([2]; listed as ghrelin): lower compared to placebo | improvement of CO [3]: not | ALAT ([4]; 2-5 days FU): 0.31 ukat/L | ASAT ([4]; 2-5 days FU): 0.42 ukat/L | Cystatin C ([4]; 2-5 days FU): 1.59 ± 0.52* mg/L | GT ([4]; 2-5 days FU): 0.83 ukat/L | Haematocrit ([4]; 2-5 days FU): 41 ± 5% | INR among non-warfarin treated ([4]; 2-5 days FU): 1.0 | INR among warfarin treated ([4]; 2-5 days FU): 2.6 | Insulin (non-fasting) ([4]; 2-5 days FU): 30 mlE/L | NT-proBNP ([4]; 2-5 days FU): 2450* ng/L | Potassium ([4]; 2-5 days FU): 4.3 ± 0.4 mmol/L | Sodium ([4]; 2-5 days FU): 138 ± 12 mmol/L | Triglycerides ([4]; 2-5 days FU): 1.6 mmol/L | Troponin T ([4]; 2-5 days FU): 31 ± 38 ng/L | White blood cell count ([4]; 2-5 days FU): 7.4 ± 2.0 109/L | hsCRP ([4]; 2-5 days FU): 3.0 mg/L | NT-proBNP ([4]; 2-5 days after infusion): remained elevated | ALAT ([4]; 30′ after infusion): 0.32 ukat/L | ASAT ([4]; 30′ after infusion): 0.43 ukat/L | Cystatin C ([4]; 30′ after infusion): 1.54 ± 0.41 mg/L | GT ([4]; 30′ after infusion): 0.82 ukat/L | NT-proBNP ([4]; 30′ after infusion): 2820 ng/L | Troponin T ([4]; 30′ after infusion): 21 ± 10 ng/L | hsCRP ([4]; 30′ after infusion): 3.5 mg/L | Cystatin C ([4]; Baseline): 1.45 ± 0.44 mg/L | Troponin T ([4]; Baseline): 21 ± 9 ng/L | ALAT ([4]; Baseline (Table 12)): 0.31 ukat/L | ASAT ([4]; Baseline (Table 12)): 0.41 ukat/L | Cystatin C ([4]; Baseline (Table 12)): 1.45 ± 10.44 mg/L | GT ([4]; Baseline (Table 12)): 0.77 ukat/L | Haematocrit ([4]; Baseline (Table 12)): 40 ± 4% | INR among non-warfarin treated ([4]; Baseline (Table 12)): 1.1 | INR among warfarin treated ([4]; Baseline (Table 12)): 2.2 | Insulin (non-fasting) ([4]; Baseline (Table 12)): 36 mlE/L | NT-proBNP ([4]; Baseline (Table 12)): 2080 ng/L | Sodium ([4]; Baseline (Table 12)): 139 ± 13 mmol/L | Triglycerides ([4]; Baseline (Table 12)): 1.4 mmol/L | Troponin T ([4]; Baseline (Table 12)): 21 ± 10 ng/L | White blood cell count ([4]; Baseline (Table 12)): 7.4 ± 1.9 109/L | hsCRP ([4]; Baseline (Table 12)): 2.7 mg/L | ALAT [4, 5]: 0.31 ukat/L | ASAT [4, 5]: 0.41 ukat/L | GT [4, 5]: 0.77 ukat/L | hsCRP [4, 5]: 2.7 mg/L | NT-proBNP ([4]; Baseline, bracketed range in lines below): 2080 ng/L | ALAT ([4]; Infusion + 30′): 0.31 ukat/L | ASAT ([4]; Infusion + 30′): 0.40 ukat/L | Cystatin C ([4]; Infusion + 30′): 1.46 ± 0.44 mg/L | GT ([4]; Infusion + 30′): 0.78 ukat/L | NT-proBNP ([4]; Infusion + 30′): 2220 ng/L | Troponin T ([4]; Infusion + 30′): 21 ± 9 ng/L | hsCRP ([4]; Infusion + 30′): 3.0 mg/L | ALAT ([4]; Infusion + 60′): 0.31 ukat/L | ASAT ([4]; Infusion + 60′): 0.44 ukat/L | Cystatin C ([4]; Infusion + 60′): 1.55 ± 0.47* mg/L | GT ([4]; Infusion + 60′): 0.79 ukat/L | NT-proBNP ([4]; Infusion + 60′): 2340* ng/L | Troponin T ([4]; Infusion + 60′): 22 ± 10 ng/L | hsCRP ([4]; Infusion + 60′): 3.0 mg/L | ALAT ([4]; Infusion + 120′): 0.31 ukat/L | ASAT ([4]; Infusion + 120′): 0.41 ukat/L | Cystatin C ([4]; Infusion + 120′): 1.57 ± 0.43* mg/L | GT ([4]; Infusion + 120′): 0.80 ukat/L | NT-proBNP ([4]; Infusion + 120′): 2630* ng/L | Troponin T ([4]; Infusion + 120′): 21 ± 10 ng/L | hsCRP ([4]; Infusion + 120′): 3.3 mg/L | Cystatin C ([4]; during infusion): increased | NT-proBNP ([4]; during infusion): increased

— patent US20230346889A9, “TREATMENT OF ACUTE HEART FAILURE” (AnaCardio R&D AB, priority 2019, published 2023)
